From ChEMBL document CHEMBL1201862, “PubChem BioAssay data set” (2004)
Active and inactive are the calls of the source.

How the values were obtained:
[1] = molecular target: T1, Intestinal-type alkaline phosphatase (Homo sapiens, UniProt P09923); test: human IAP activators, dose response, biochemical, luminescent, uHTS hits, set 2 (AID 488817); format: functional;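 note: potency of activators that raise enzyme activity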
[2] = HEp-2 cell cytotoxicity, dose response, cytotoxicity control for RSV inhibitor project, HTS (AID 2410); format: functional; details: human respiratory syncytial virus
[3] = molecular target: Intestinal-type alkaline phosphatase (Mus musculus, UniProt P24822); test: PubChem AID 488875; format: functional
Chain of Intestinal-type alkaline phosphatase (Mus musculus, UniProt P24822) (P24822 whole entry): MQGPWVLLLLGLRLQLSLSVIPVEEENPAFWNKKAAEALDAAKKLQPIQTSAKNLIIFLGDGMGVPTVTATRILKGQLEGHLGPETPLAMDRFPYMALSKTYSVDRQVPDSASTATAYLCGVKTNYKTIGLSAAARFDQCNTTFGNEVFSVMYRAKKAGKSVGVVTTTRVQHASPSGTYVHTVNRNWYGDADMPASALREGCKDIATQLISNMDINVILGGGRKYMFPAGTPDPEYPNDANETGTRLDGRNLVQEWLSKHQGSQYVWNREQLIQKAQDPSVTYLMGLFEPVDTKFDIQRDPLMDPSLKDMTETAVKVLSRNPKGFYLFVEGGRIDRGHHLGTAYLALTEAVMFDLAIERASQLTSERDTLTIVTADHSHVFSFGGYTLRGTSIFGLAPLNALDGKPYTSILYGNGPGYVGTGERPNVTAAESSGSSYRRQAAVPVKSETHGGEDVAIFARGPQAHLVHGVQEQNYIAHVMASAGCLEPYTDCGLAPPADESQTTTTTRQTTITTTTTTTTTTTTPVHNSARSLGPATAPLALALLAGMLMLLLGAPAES

[4] = molecular target: T1, Intestinal-type alkaline phosphatase; test: human intestinal alkaline phosphatase activators, dose response, biochemical, luminescence, uHTS hits (AID 463120); format: functional
[5] = molecular target: T2, Alkaline phosphatase, tissue-nonspecific isozyme (Homo sapiens, UniProt P05186); test: TNAP enzyme activators, dose response, selectivity assay for human IAP activator project, biochemical, TNAP isozyme, human IAP uHTS hits (AID 488886); format: functional;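 note: potency of compounds raising TNAP activity as a selectivity check on IAP activators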
T2 sequence (P05186 whole entry): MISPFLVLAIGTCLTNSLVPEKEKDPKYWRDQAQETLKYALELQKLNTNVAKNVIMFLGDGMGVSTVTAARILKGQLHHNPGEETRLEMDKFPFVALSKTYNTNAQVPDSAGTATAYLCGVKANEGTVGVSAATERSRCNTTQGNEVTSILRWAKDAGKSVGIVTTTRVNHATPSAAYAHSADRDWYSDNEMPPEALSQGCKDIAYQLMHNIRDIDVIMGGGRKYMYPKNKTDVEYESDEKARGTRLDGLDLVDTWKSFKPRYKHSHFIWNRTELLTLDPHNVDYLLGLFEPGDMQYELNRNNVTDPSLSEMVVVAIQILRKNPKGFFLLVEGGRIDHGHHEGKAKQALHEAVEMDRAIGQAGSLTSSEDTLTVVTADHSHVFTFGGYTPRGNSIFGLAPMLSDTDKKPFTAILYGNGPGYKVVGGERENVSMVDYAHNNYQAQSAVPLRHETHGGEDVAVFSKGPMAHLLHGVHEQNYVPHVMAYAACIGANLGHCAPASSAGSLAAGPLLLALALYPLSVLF

[6] = control 3'UTR Renilla luciferase suppression, dose response, counter-screen for Shn3 inhibitor project, cell-based, Clone20-Shn3RL, cherry-picked (AID 624133); format: functional
[7] = Shn3 3'UTR reporter inhibitors, dose response, cell-based, Clone20 osteoblasts, firefly luciferase, cherry-picked (AID 624132); format: functional;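 note: firefly luciferase luminescence from reporter carrying the Shn3 3'UTR in osteoblasts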
[8] = cytotoxicity toward DRD oncogenic fibroblasts, dose response, cell-based, non-viral oncogenic, luminescence (AID 1934); format: functional; details: Homo sapiens
[9] = molecular target: Eukaryotic translation initiation factor 4E (Mus musculus, UniProt P63073); test: eIF4E–eIF4G protein interaction inhibitors, dose response, biochemical, TR-FRET (AID 855); format: functional;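 note: potency for disrupting eIF4E binding to eIF4GI seen as loss of FRET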
Chain of Eukaryotic translation initiation factor 4E (P63073 whole entry): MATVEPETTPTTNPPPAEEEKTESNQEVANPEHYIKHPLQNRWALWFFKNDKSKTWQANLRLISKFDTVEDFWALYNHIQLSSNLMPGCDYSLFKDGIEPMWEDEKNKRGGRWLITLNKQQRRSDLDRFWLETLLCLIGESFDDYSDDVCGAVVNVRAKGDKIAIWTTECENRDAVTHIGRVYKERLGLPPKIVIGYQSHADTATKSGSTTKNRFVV

[10] = system: BJ; test: cytotoxicity toward BJ-TERT fibroblasts, dose response, cell-based, RAS-independent, luminescence (AID 1933); format: functional; details: Homo sapiens
[11] = HepG2 cell cytotoxicity, dose response, cytotoxicity control for Shn3 inhibitor project, CellTiter-Glo, cherry-picked (AID 624134); format: functional, cell-based
[12] = molecular target: Mucolipin-3 (Homo sapiens, UniProt Q8TDD5); test: Fluorescence counterscreen assay for […] agonists: dose response cell-based high-throughput screening assay to identify agonists of the transient receptor potential channel ML3 (TRPML3). [Related pubchem assays: 1424, 1448 ]; format: functional
Chain of Mucolipin-3 (Q8TDD5 whole entry): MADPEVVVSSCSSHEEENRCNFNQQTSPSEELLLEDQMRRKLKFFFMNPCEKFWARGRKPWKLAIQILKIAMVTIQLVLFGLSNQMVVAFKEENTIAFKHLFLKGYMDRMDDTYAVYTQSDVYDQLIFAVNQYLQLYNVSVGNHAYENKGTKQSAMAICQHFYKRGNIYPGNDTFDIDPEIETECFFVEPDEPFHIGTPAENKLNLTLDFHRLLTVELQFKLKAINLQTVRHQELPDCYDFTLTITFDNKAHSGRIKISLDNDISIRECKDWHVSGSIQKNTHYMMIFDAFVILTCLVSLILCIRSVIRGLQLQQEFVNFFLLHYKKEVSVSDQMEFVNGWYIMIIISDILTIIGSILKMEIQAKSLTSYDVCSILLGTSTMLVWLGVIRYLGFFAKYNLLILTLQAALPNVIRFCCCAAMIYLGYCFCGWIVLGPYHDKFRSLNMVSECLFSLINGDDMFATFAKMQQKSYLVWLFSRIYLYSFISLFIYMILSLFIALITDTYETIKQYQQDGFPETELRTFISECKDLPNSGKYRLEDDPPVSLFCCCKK

[13] = system: BJ; test: cytotoxicity toward BJ-TERT-LT-ST fibroblasts, dose response, cell-based, RAS-independent, luminescence (AID 1935); format: functional; details: Homo sapiens;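 note: BJ fibroblasts immortalized with TERT plus LT and ST oncogenes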
[14] = cells; format: functional
[15] = Vero E6 cell cytotoxicity, dose response, cytotoxicity control for non-replicating M. tuberculosis project, secondary assay (AID 492998); format: functional, VeroE6; details: Vero C1008
[16] = inhibitors of intracellular T. cruzi replication, confirmation, NIH3T3 host cells, beta-gal luminescence (AID 2044); format: functional, cell-based;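 note: intracellular parasites grown in NIH/3T3 mouse fibroblasts as host cells; luminescent beta-galactosidase reporter signal from transgenic T. cruzi replicating inside host cells; inhibitors lower the luminescence signal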
[17] = cytotoxicity toward NIH3T3 fibroblasts, dose response, counter-screen, cell-based, ATP luminescence, mouse fibroblasts (AID 2010); format: functional;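 note: cells exposed to compound for about 90 hours before reading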
[18] = system: BJ; test: cells; format: functional, cell-based; details: Homo sapiens
[19] = molecular target: Ion channel NompC (Danio rerio, UniProt Q7T1G6); test: Dose response cell-based high-throughput screening assay for agonists of the transient receptor potential channel N1 (TRPN1). [Related pubchem assays (depositor defined):AID1424, AID1448]; format: functional
Chain of Ion channel NompC (Q7T1G6 whole entry): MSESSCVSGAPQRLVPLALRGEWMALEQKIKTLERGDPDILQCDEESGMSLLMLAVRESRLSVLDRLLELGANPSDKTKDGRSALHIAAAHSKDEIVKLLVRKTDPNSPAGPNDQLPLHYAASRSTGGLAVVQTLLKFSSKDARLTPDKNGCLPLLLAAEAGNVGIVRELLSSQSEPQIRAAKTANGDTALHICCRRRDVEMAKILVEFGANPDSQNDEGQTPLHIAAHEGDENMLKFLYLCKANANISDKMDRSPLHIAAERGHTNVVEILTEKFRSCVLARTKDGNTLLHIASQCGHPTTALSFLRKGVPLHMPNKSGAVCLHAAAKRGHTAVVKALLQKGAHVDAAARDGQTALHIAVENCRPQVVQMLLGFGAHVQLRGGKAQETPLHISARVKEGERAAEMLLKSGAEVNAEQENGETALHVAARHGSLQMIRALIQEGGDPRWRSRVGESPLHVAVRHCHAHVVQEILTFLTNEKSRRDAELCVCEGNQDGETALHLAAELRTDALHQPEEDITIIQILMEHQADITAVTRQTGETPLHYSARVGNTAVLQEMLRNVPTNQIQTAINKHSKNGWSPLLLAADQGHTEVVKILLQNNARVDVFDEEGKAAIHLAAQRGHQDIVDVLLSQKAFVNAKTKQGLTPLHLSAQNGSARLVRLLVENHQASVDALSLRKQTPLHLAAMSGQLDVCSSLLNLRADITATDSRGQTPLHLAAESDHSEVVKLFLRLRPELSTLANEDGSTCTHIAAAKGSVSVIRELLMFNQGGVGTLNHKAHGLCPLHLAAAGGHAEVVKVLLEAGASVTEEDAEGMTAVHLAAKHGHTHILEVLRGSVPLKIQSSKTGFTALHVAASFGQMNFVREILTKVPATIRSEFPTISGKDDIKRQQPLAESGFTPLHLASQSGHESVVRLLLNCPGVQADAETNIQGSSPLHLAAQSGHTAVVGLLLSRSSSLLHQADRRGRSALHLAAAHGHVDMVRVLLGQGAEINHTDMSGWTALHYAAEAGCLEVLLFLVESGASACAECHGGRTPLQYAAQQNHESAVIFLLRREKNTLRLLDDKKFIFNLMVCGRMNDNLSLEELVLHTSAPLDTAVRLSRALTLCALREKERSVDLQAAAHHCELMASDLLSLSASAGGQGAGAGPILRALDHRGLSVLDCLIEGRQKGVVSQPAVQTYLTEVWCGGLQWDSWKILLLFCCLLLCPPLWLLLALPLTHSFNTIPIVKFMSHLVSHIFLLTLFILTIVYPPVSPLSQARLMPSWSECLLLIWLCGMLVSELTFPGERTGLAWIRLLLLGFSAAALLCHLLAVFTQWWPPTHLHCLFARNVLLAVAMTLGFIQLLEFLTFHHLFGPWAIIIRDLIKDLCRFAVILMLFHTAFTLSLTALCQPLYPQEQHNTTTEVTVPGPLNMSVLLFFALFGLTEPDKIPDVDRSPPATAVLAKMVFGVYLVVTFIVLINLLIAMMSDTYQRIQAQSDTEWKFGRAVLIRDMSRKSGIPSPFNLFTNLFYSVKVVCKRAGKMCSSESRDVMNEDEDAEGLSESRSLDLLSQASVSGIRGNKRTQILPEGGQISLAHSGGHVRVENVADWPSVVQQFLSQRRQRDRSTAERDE

[20] = HepG2 cell cytotoxicity, dose response, cytotoxicity control for non-replicating M. tuberculosis project (AID 489018); format: functional; details: Mycobacterium tuberculosis
[21] = THP-1 cell cytotoxicity, dose response, cytotoxicity control for non-replicating M. tuberculosis project (AID 489025); format: functional
[22] = system: H9c2; test: cells; format: functional, cell-based; details: Rattus norvegicus, H9c2, Myocardium;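 note: confirmatory concentration-response retest of ultra-high-throughput screening hits for modulation of myocardial damage; cell death induced by hydrogen peroxide oxidative stress; compound pretreatment for 60 min then peroxide exposure for 2 h; potency is for protecting the cells against peroxide damage rather than for killing them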
[23] = molecular target: T3, Type-1 angiotensin II receptor (Homo sapiens, UniProt P30556); test: AT1 receptor agonists, dose response, selectivity assay for APJ receptor agonist project, cell-based, uHTS hits (AID 488865); format: functional;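 note: beta-arrestin recruitment to AT1 measured by enzyme fragment complementation luminescence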
T3 sequence (P30556 whole entry): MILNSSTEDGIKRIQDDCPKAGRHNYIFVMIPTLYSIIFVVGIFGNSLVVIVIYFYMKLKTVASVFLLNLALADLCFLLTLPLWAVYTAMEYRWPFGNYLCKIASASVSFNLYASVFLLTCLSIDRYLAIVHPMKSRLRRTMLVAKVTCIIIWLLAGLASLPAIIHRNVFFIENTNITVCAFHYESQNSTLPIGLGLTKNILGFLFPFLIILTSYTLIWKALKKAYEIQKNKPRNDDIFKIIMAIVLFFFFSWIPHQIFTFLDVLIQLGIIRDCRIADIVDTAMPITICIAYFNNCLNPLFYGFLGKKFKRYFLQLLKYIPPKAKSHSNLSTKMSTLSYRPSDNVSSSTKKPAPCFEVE

T1 sequence (P09923 whole entry): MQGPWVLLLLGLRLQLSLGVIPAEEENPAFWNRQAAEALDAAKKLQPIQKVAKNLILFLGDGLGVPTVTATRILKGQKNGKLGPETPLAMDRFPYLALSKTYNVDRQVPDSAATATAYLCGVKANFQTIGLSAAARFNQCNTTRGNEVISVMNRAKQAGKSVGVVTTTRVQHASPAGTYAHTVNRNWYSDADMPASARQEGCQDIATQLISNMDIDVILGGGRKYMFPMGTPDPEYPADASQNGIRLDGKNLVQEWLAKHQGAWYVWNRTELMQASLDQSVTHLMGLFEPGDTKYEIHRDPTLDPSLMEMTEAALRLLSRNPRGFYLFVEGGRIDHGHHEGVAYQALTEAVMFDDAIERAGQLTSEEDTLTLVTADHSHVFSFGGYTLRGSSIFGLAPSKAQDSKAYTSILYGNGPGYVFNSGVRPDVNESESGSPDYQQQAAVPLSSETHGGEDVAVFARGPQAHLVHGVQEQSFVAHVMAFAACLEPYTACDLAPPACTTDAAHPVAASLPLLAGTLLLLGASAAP

Compound: COc1ccccc1CCNC(=O)C1CCN(c2nnc(C)c3c(C)n(-c4ccc(C)cc4)nc23)CC1
- EC50 [1]: 65.5 µM (active)
- CC50 [2]: 17.4 µM (active)
- EC50 [3]: > 100 µM (inactive)
- EC50 [4]: 23.1 µM (active)
- EC50 [5]: 53.2 µM (active)

Compound: Cc1cc(N2CCCCC2)nc(NCc2ccccc2)n1
- AC50 [6]: 6.27 µM (active)
- AC50 [7]: 4.01 µM (active)
- EC50 [8]: 25.9 µM (active)
- IC50 [9]: > 64 µM (inactive)
- EC50 [10]: 17.4 µM (active)
- AC50 [11]: 54.8 µM (active)
- EC50 [12]: > 3.32 µM (active)
- EC50 [13]: > 75 µM (inconclusive)
- IC50 [14]: 40.2 µM (active)
- CC50 [15]: > 20 µM (active)
- EC50 [16]: 2.04 µM (active)
- EC50 [17]: > 60 µM (not active)
- EC50 [18]: 21.4 µM (active)
- EC50 [19]: > 3.32 µM (inactive)
- CC50 [20]: > 20 µM (active)
- CC50 [21]: 8.56 µM (active)

Compound: CCOc1ccc2nc(O)c(CN(Cc3ccco3)C(CC)c3nnnn3Cc3ccccc3)cc2c1 (stereo not drawn)
- IC50 [22]: > 79 µM (inactive)
- EC50 [23]: > 100 µM (inactive)
